Test results: the supplement of paper PMC11451515

Tested on: SEM cells
Experiment: cell viability relative to DMSO control; higher = less cytotoxic
Conditions: 48 h
In short: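 Before seeding, each leukemia line was adapted for at least four passages in each medium. NOMO1 or SEM cells (500 cells/well) and P12-Ichikawa cells (1000 cells/well) went into 1536-well plates at 5 μl, then received library compounds in DMSO by pin dosing across 11 threefold concentrations, 47 μM to 0.79 nM. Readout was CellTiter-Glo One luminescence after 48 h at 37°C, and viability is given as a per-plate percentage of DMSO wells, with cell-free wells as background.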

[1] = HPLM + 10% dialyzed FBS, 0.000781 µM
[2] = HPLM + 10% dialyzed FBS, 0.00234 µM
[3] = HPLM + 10% dialyzed FBS, 0.00702 µM
[4] = HPLM + 10% dialyzed FBS, 0.0211 µM
[5] = HPLM + 10% dialyzed FBS, 0.0632 µM
[6] = HPLM + 10% dialyzed FBS, 0.19 µM
[7] = HPLM + 10% dialyzed FBS, 0.569 µM
[8] = HPLM + 10% dialyzed FBS, 1.71 µM
[9] = HPLM + 10% dialyzed FBS, 5.12 µM
[10] = HPLM + 10% dialyzed FBS, 15.4 µM
[11] = HPLM + 10% dialyzed FBS, 46.1 µM
[12] = RPMI 5 mM glucose + 10% FBS, 0.000781 µM
[13] = RPMI 5 mM glucose + 10% FBS, 0.00234 µM
[14] = RPMI 5 mM glucose + 10% FBS, 0.00702 µM
[15] = RPMI 5 mM glucose + 10% FBS, 0.0211 µM
[16] = RPMI 5 mM glucose + 10% FBS, 0.0632 µM
[17] = RPMI 5 mM glucose + 10% FBS, 0.19 µM
[18] = RPMI 5 mM glucose + 10% FBS, 0.569 µM
[19] = RPMI 5 mM glucose + 10% FBS, 1.71 µM
[20] = RPMI 5 mM glucose + 10% FBS, 5.12 µM
[21] = RPMI 5 mM glucose + 10% FBS, 15.4 µM
[22] = RPMI 5 mM glucose + 10% FBS, 46.1 µM
[23] = RPMI 5 mM glucose + 10% dialyzed FBS, 0.000781 µM
[24] = RPMI 5 mM glucose + 10% dialyzed FBS, 0.00234 µM
[25] = RPMI 5 mM glucose + 10% dialyzed FBS, 0.00702 µM
[26] = RPMI 5 mM glucose + 10% dialyzed FBS, 0.0211 µM
[27] = RPMI 5 mM glucose + 10% dialyzed FBS, 0.0632 µM
[28] = RPMI 5 mM glucose + 10% dialyzed FBS, 0.19 µM
[29] = RPMI 5 mM glucose + 10% dialyzed FBS, 0.569 µM
[30] = RPMI 5 mM glucose + 10% dialyzed FBS, 1.71 µM
[31] = RPMI 5 mM glucose + 10% dialyzed FBS, 5.12 µM
[32] = RPMI 5 mM glucose + 10% dialyzed FBS, 15.4 µM
[33] = RPMI 5 mM glucose + 10% dialyzed FBS, 46.1 µM

SMILES | cell viability [1] [%] | cell viability [2] [%] | cell viability [3] [%] | cell viability [4] [%] | cell viability [5] [%] | cell viability [6] [%] | cell viability [7] [%] | cell viability [8] [%] | cell viability [9] [%] | cell viability [10] [%] | cell viability [11] [%] | cell viability [12] [%] | cell viability [13] [%] | cell viability [14] [%] | cell viability [15] [%] | cell viability [16] [%] | cell viability [17] [%] | cell viability [18] [%] | cell viability [19] [%] | cell viability [20] [%] | cell viability [21] [%] | cell viability [22] [%] | cell viability [23] [%] | cell viability [24] [%] | cell viability [25] [%] | cell viability [26] [%] | cell viability [27] [%] | cell viability [28] [%] | cell viability [29] [%] | cell viability [30] [%] | cell viability [31] [%] | cell viability [32] [%] | cell viability [33] [%]
CN(C)CCN1C(=O)c2cccc3cc(N)cc(c23)C1=O | 94.4 | 89.4 | 110 | 108 | 105 | 107 | 108 | 91.1 | 51 | 30.3 | 3.64 | 70.2 | 67.3 | 71.5 | 72.1 | 73.8 | 74.1 | 62.6 | 52.4 | 32.1 | 19.3 | 2.87 | 89.5 | 95 | 98.8 | 102 | 112 | 99.3 | 106 | 92 | 60.1 | 34.6 | 3.19
CN1CCN(CCCN2c3ccccc3Sc3ccc(C(F)(F)F)cc32)CC1 | 74.1 | 85.4 | 88.1 | 103 | 97.3 | 101 | 106 | 105 | 107 | 102 | 106 | 83.1 | 91.4 | 90.7 | 93.9 | 94.4 | 100 | 101 | 99.4 | 98.6 | 105 | 101 | 90.6 | 94.2 | 89.9 | 94.4 | 102 | 102 | 92.7 | 104 | 107 | 112 | 86.8
CC(C)(C)[C@H](NC(=O)c1ccc(N)c(Cl)c1)C(=O)N1CCC[C@H]1C(=O)N[C@H](C#N)CC(=O)O | 99.5 | 105 | 109 | 129 | 127 | 125 | 113 | 113 | 123 | 140 | 130 | 107 | 107 | 129 | 118 | 118 | 124 | 115 | 120 | 100 | 134 | 110 | 116 | 101 | 117 | 111 | 117 | 116 | 117 | 118 | 117 | 123 | 125
CC(C)OC1=CC=C2C(=C1)O\C=C(/C2=O)C3=CC=CC=C3 | 106 | 118 | 105 | 118 | 115 | 123 | 110 | 125 | 112 | 133 | 106 | 113 | 123 | 134 | 109 | 131 | 130 | 133 | 144 | 128 | 144 | 116 | 106 | 133 | 121 | 126 | 129 | 146 | 157 | 156 | 147 | 148 | 126
N[S+](=O)([O-])OC[C@@H]1C[C@@H](n2ccc3c(N[C@H]4CCc5ccccc54)ncnc32)C[C@@H]1O | 96.3 | 98.3 | 104 | 94.2 | 105 | 122 | 101 | 53.1 | 27.8 | 14.2 | 7.9 | 101 | 121 | 119 | 101 | 101 | 117 | 113 | 48.4 | 24.5 | 10.3 | 8.49 | 90.8 | 95.4 | 95.7 | 92.1 | 97.3 | 111 | 103 | 35.8 | 23.8 | 12.1 | 8.74
C[C@@]1(C(=O)Nc2ccc(F)nc2)CCCN1c1nc(Nc2cc(C3CC3)[nH]n2)c2cccn2n1 | 90.8 | 98.6 | 106 | 97.2 | 101 | 98.8 | 81.9 | 103 | 30.6 | 21.4 | 9.04 | 56.6 | 68.8 | 64.6 | 70.6 | 72.6 | 77.2 | 66.1 | 60.1 | 10.9 | 8.82 | 2.55 | 95.4 | 89.5 | 102 | 107 | 112 | 92.3 | 104 | 96.5 | 18.8 | 16.4 | 6.22
CCOC(=O)Nc1ccc(NCc2ccc(F)cc2)nc1N | 111 | 104 | 119 | 102 | 105 | 117 | 94.9 | 114 | 99.9 | 115 | 101 | 117 | 121 | 119 | 117 | 125 | 118 | 118 | 116 | 109 | 116 | 65.3 | 115 | 98.9 | 120 | 128 | 131 | 128 | 138 | 113 | 104 | 115 | 80.2
